Patent publication US9242970B2 (ACTELION PHARMACEUTICALS LTD., priority 2010, dated 2016)
Like-named read-outs stand apart in the source and are kept apart here.

Key:
human orexin-1 receptor = human orexin-1 receptor (Homo sapiens (Human), UniProt O43613); assay: In vitro assay: intracellular calcium measurements (FLIPR), antagonistic activity; assay type: cell-based; settings: CHO cells, 3 nM orexin-A, marked values are geometric means of n = 2-6, read-out: IC50 OX1
human orexin-2 receptor = human orexin-2 receptor (Homo sapiens (Human), UniProt O43614); assay: as above; assay type: cell-based; settings: CHO cells, 3 nM orexin-A, marked values are geometric means of n = 2-6, read-out: IC50 OX2
[1] = compound incubation time of 10 min

Sequence of human orexin-2 receptor (O43614 whole entry): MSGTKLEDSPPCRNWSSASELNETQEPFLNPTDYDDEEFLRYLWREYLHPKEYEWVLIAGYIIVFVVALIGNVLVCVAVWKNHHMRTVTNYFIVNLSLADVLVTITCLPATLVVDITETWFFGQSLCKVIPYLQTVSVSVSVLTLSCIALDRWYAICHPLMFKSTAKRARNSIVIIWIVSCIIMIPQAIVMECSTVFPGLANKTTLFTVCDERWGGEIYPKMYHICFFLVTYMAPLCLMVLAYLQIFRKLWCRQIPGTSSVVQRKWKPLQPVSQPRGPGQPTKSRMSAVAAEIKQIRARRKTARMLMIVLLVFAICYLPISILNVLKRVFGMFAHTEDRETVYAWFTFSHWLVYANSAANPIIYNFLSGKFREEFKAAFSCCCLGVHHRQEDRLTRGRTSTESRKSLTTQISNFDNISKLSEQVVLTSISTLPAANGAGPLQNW
Sequence of human orexin-1 receptor (O43613 whole entry): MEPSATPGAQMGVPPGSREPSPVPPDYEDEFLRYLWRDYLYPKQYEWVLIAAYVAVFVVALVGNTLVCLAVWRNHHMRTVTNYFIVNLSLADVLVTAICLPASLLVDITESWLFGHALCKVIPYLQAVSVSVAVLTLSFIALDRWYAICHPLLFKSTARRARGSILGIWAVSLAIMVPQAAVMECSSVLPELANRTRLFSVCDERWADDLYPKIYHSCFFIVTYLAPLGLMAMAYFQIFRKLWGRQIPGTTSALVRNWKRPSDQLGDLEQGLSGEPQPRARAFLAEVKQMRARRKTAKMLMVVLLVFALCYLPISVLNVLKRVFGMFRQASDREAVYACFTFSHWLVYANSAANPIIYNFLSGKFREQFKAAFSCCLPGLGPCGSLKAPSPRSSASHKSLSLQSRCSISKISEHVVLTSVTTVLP

| Compound | IC50 (human orexin-1 receptor; compound incubation 120 min) | IC50 (human orexin-2 receptor; compound incubation 120 min) | IC50 (human orexin-1 receptor; [1]) | IC50 (human orexin-2 receptor; [1]) |
| --- | --- | --- | --- | --- |
| COc1cccc(OC)c1C1CCCCC(=O)N1Cc1cnc(OC(F)F)c(Cl)c1 (stereo not drawn) [Example 89, 1-((5-chloro-6-(difluoromethoxy)pyridin-3-yl)methyl)-7-(2,6-dimethoxyphenyl)azepan-2-one] | 385 nM | 85 nM | – | – |
| COc1cccc(OC)c1C1CCCCC(=O)N1Cc1ccc2oc3ccccc3c2c1 (stereo not drawn) [Example 90, 1-(dibenzo[b,d]furan-2-ylmethyl)-7-(2,6-dimethoxyphenyl)azepan-2-one] | 1 nM | 3 nM | – | – |
| COc1cccc(OC)c1C1CCCCC(=O)N1Cc1cccc(-c2csc(C)n2)c1 (stereo not drawn) [Example 91, 7-(2,6-dimethoxyphenyl)-1-(3-(2-methylthiazol-4-yl)benzyl)azepan-2-one] | 1 nM | 3 nM | – | – |
| COc1cccc(OC)c1C1CCCCC(=O)N1Cc1cncc(-c2ccccc2)c1 (stereo not drawn) [Example 92, 7-(2,6-dimethoxyphenyl)-1-((5-phenylpyridin-3-yl)methyl)azepan-2-one] | 1060 nM | 455 nM | – | – |
| COc1cccc(OC)c1C1CCCCC(=O)N1Cc1cccc(N2CCCC2)c1 (stereo not drawn) [Example 93, 7-(2,6-dimethoxyphenyl)-1-(3-(pyrrolidin-1-yl)benzyl)azepan-2-one] | 3 nM | 16 nM | – | – |
| COc1cccc(OC)c1C1CCCCC(=O)N1Cc1cnn(-c2ccccc2)c1 (stereo not drawn) [Example 94, 7-(2,6-dimethoxyphenyl)-1-((1-phenyl-1H-pyrazol-4-yl)methyl)azepan-2-one] | 121 nM | 378 nM | – | – |
| COc1cccc(OC)c1C1CCCCC(=O)N1Cc1ccc2sc(C)nc2c1 (stereo not drawn) [Example 95, 7-(2,6-dimethoxyphenyl)-1-((2-methylbenzo[d]thiazol-5-yl)methyl)azepan-2-one] | 8 nM | 29 nM | – | – |
| COc1cccc(OC)c1C1CCCCC(=O)N1Cc1cccc(-c2ccncc2)c1 (stereo not drawn) [Example 96, 7-(2,6-dimethoxyphenyl)-1-(3-(pyridin-4-yl)benzyl)azepan-2-one] | 16 nM | 85 nM | – | – |
| COc1cccc(OC)c1C1CCCCC(=O)N1Cc1cccc(-n2cccn2)c1 (stereo not drawn) [Example 97, 1-(3-(1H-pyrazol-1-yl)benzyl)-7-(2,6-dimethoxyphenyl)azepan-2-one] | 5 nM | 20 nM | – | – |
| COc1cccc(OC)c1C1CCCCC(=O)N1Cc1csc(-c2ccccc2)n1 (stereo not drawn) [Example 98, 7-(2,6-dimethoxyphenyl)-1-((2-phenylthiazol-4-yl)methyl)azepan-2-one] | 6 nM | 6 nM | – | – |
| COc1cccc(OC)c1C1CCCCC(=O)N1Cc1cccc(-c2cncs2)c1 (stereo not drawn) [Example 99, 7-(2,6-dimethoxyphenyl)-1-(3-(thiazol-5-yl)benzyl)azepan-2-one] | 7 nM | 34 nM | – | – |
| COc1cccc(OC)c1C1CCCCC(=O)N1Cc1cccc(-c2ncc(C)s2)c1 (stereo not drawn) [Example 100, 7-(2,6-dimethoxyphenyl)-1-(3-(5-methylthiazol-2-yl)benzyl)azepan-2-one] | 1 nM | 3 nM | – | – |
| COc1cccc(OC)c1C1CCCCC(=O)N1Cc1cccc(-n2nccn2)c1 (stereo not drawn) [Example 101, 1-(3-(2H-1,2,3-triazol-2-yl)benzyl)-7-(2,6-dimethoxyphenyl)azepan-2-one] | 3 nM | 33 nM | – | – |
| COc1cccc(OC)c1C1CCCCC(=O)N1Cc1cccc(-c2cscn2)c1 (stereo not drawn) [Example 102, 7-(2,6-dimethoxyphenyl)-1-(3-(thiazol-4-yl)benzyl)azepan-2-one] | 6 nM | 19 nM | – | – |
| COc1cccc(OC)c1C1CCCCC(=O)N1Cc1ccnc(-n2cccn2)c1 (stereo not drawn) [Example 103, 1-((2-(1H-pyrazol-1-yl)pyridin-4-yl)methyl)-7-(2,6-dimethoxyphenyl)azepan-2-one] | 8 nM | 86 nM | – | – |
| COc1cccc(OC)c1C1CCCCC(=O)N1Cc1cccc(-n2cccn2)n1 (stereo not drawn) [Example 104, 1-((6-(1H-pyrazol-1-yl)pyridin-2-yl)methyl)-7-(2,6-dimethoxyphenyl)azepan-2-one] | 38 nM | 429 nM | – | – |
| COc1cccc(OC)c1C1CCCCC(=O)N1Cc1ccc2nc(C)sc2c1 (stereo not drawn) [Example 105, 7-(2,6-dimethoxyphenyl)-1-((2-methylbenzo[d]thiazol-6-yl)methyl)azepan-2-one] | 155 nM | 258 nM | – | – |
| COc1cccc(OC)c1C1CCCCC(=O)N1Cc1cccc(-c2ccccn2)c1F (stereo not drawn) [Example 106, 7-(2,6-dimethoxyphenyl)-1-(2-fluoro-3-(pyridin-2-yl)benzyl)azepan-2-one] | 14 nM | 60 nM | – | – |
| COc1cccc(OC)c1C1CCCCC(=O)N1Cc1ccc(F)c(-c2ccccn2)c1 (stereo not drawn) [Example 107, 7-(2,6-dimethoxyphenyl)-1-(4-fluoro-3-(pyridin-2-yl)benzyl)azepan-2-one] | 4 nM | 22 nM | – | – |
| COc1cc(OC)c(C2CCC(=O)N2Cc2ccc(OC(F)(F)F)cc2)c(OC)c1 (stereo not drawn) [Example 108, 1-(4-(trifluoromethoxy)benzyl)-5-(2,4,6-trimethoxyphenyl)pyrrolidin-2-one] | – | – | 1930 nM | 271 nM |

| Compound | IC50 (human orexin-1 receptor; compound incubation 120 min) | IC50 (human orexin-2 receptor; compound incubation 120 min) | IC50 (human orexin-1 receptor; [1]) | IC50 (human orexin-2 receptor; [1]) |
| --- | --- | --- | --- | --- |
| COc1cccc(OC)c1C1CCC(=O)N1Cc1cnc2ccccc2c1 (stereo not drawn) [Example 109, 5-(2,6-dimethoxyphenyl)-1-(quinolin-3-ylmethyl)pyrrolidin-2-one] | – | – | 227 nM | 44 nM |
| COc1cccc(OC)c1C1CCC(=O)N1Cc1ccc2ccccc2n1 (stereo not drawn) [Example 110, 5-(2,6-dimethoxyphenyl)-1-(quinolin-2-ylmethyl)pyrrolidin-2-one] | – | – | 409 nM | 136 nM |
| COc1cccc(OC)c1C1CCC(=O)N1Cc1ccc2ccccc2c1 (stereo not drawn) [Example 111, 5-(2,6-dimethoxyphenyl)-1-(naphthalen-2-ylmethyl)pyrrolidin-2-one] | – | – | 168 nM | 113 nM |
| COc1cccc(OC)c1C1CCC(=O)N1Cc1cnc(OC(F)F)c(Cl)c1 (stereo not drawn) [Example 112, 1-((5-chloro-6-(difluoromethoxy)pyridin-3-yl)methyl)-5-(2,6-dimethoxyphenyl)pyrrolidin-2-one] | – | – | 646 nM | 107 nM |
| COc1cccc(OC)c1C1CCC(=O)N1Cc1cccc(-c2ccccc2)c1 (stereo not drawn) [Example 113, 1-([1,1′-biphenyl]-3-ylmethyl)-5-(2,6-dimethoxyphenyl)pyrrolidin-2-one] | 29 nM | 34 nM | – | – |
| COc1cccc(OC)c1C1CCC(=O)N1Cc1ccc(-c2ccccc2)cc1 (stereo not drawn) [Example 114, 1-([1,1′-biphenyl]-4-ylmethyl)-5-(2,6-dimethoxyphenyl)pyrrolidin-2-one] | 149 nM | 184 nM | – | – |
| COc1cccc(OC)c1C1CCC(=O)N1Cc1cccc(-c2cccnc2)c1 (stereo not drawn) [Example 115, 5-(2,6-dimethoxyphenyl)-1-(3-(pyridin-3-yl)benzyl)pyrrolidin-2-one] | 217 nM | 249 nM | – | – |
| COc1cccc(OC)c1C1CCC(=O)N1Cc1cccc2ccccc12 (stereo not drawn) [Example 116, 5-(2,6-dimethoxyphenyl)-1-(naphthalen-1-ylmethyl)pyrrolidin-2-one] | 789 nM | 291 nM | – | – |
| COc1cccc(OC)c1C1CCC(=O)N1Cc1cccc(Oc2ccccc2)c1 (stereo not drawn) [Example 117, 5-(2,6-dimethoxyphenyl)-1-(3-phenoxybenzyl)pyrrolidin-2-one] | 211 nM | 65 nM | – | – |
| COc1cccc(OC)c1C1CCC(=O)N1Cc1ccc(Oc2ccccc2)cc1 (stereo not drawn) [Example 118, 5-(2,6-dimethoxyphenyl)-1-(4-phenoxybenzyl)pyrrolidin-2-one] | 233 nM | 58 nM | – | – |
| COc1cccc(OC)c1C1CCC(=O)N1Cc1cccc(-c2ccccn2)c1 (stereo not drawn) [Example 119, 5-(2,6-dimethoxyphenyl)-1-(3-(pyridin-2-yl)benzyl)pyrrolidin-2-one] | 57 nM | 56 nM | – | – |
| COc1cccc(OC)c1C1CCC(=O)N1Cc1ccnc(-c2ccccc2)c1 (stereo not drawn) [Example 120, 5-(2,6-dimethoxyphenyl)-1-((2-phenylpyridin-4-yl)methyl)pyrrolidin-2-one] | 64 nM | 121 nM | – | – |
| COc1cccc(OC)c1C1CCC(=O)N1Cc1cccc(-c2ccccc2)n1 (stereo not drawn) [Example 121, 5-(2,6-dimethoxyphenyl)-1-((6-phenylpyridin-2-yl)methyl)pyrrolidin-2-one] | 183 nM | 105 nM | – | – |
| COc1cccc(OC)c1C1CC(C)C(=O)N1Cc1cccc(-c2ccccc2)c1 (stereo not drawn) [Example 122, 1-([1,1′-biphenyl]-3-ylmethyl)-5-(2,6-dimethoxyphenyl)-3-methylpyrrolidin-2-one] | 18 nM | 70 nM | – | – |
| COc1cccc(OC)c1C1CC(C)C(=O)N1Cc1cccc(N2CCCC2)c1 (stereo not drawn) [Example 123, 5-(2,6-dimethoxyphenyl)-3-methyl-1-(3-(pyrrolidin-1-yl)benzyl)pyrrolidin-2-one] | 13 nM | 74 nM | – | – |
| COc1cccc(OC)c1C1CCC(=O)N1Cc1cccc(-c2nccs2)c1 (stereo not drawn) [Example 124, 5-(2,6-dimethoxyphenyl)-1-(3-(thiazol-2-yl)benzyl)pyrrolidin-2-one] | 23 nM | 89 nM | – | – |
| COc1cccc(OC)c1C1CCC(=O)N1Cc1cccc(-c2csc(C)n2)c1 (stereo not drawn) [Example 125, 5-(2,6-dimethoxyphenyl)-1-(3-(2-methylthiazol-4-yl)benzyl)pyrrolidin-2-one] | 11 nM | 82 nM | – | – |
| COc1cccc(OC)c1C1CCC(=O)N1Cc1cccc(-n2cccn2)c1 (stereo not drawn) [Example 126, 1-(3-(1H-pyrazol-1-yl)benzyl)-5-(2,6-dimethoxyphenyl)pyrrolidin-2-one] | 165 nM | 839 nM | – | – |
| COc1cccc(OC)c1C1CCC(=O)N1Cc1ccc2oc3ccccc3c2c1 (stereo not drawn) [Example 127, 1-(dibenzo[b,d]furan-2-ylmethyl)-5-(2,6-dimethoxyphenyl)pyrrolidin-2-one] | 14 nM | 20 nM | – | – |
